Consider 20 molecules from patent publication US20230127898A1, “HEPATITIS B CAPSID ASSEMBLY MODULATORS” (Venatorx Pharmaceuticals, Inc., priority 2020, published 2023).

Where two headings read alike, the source gives them in different places.

Data set [1] is described as follows: In vitro cytotoxicity assay (MTT cell viability) in HepG2 cells. It counts as cell-based. The following applies: human. How it is done:
To evaluate antiviral selectivity, the cytotoxic activity of each compound was determined using a standard cell viability assay performed on the parental HepG2 cell line. Cell viability was determined by measuring the conversion of 3-(4,5-dimethylthiazol-2-yl)-2,5-diphenyltetrazolium bromide (MTT) to the insoluble formazan salt crystal that occurs in live cells. Briefly, HepG2 cells were seeded in 96-well plates at a density of 20,000 cells per well in EMEM+10% FBS (complete growth medium) and allowed to adhere overnight in a 37° C., 5% CO2 humidified incubator. The next day, test agents were prepared by performing 8 half-log10 serial dilutions in 100% DMSO at 200×the final desired concentration in the assay. Compounds were tested over a range of concentrations from 30 μM to 1.0 nM in the assay. HepG2 cells were incubated in the presence of various concentrations of CAMs for 7 days in a 37° C., 5% CO2 humidified incubator. At the completion of the 7-day incubation period, MTT reagent was added to each well and the mixture was incubated for an additional 3-4 hours. At the completion of the incubation period, all wells were aspirated to remove the culture medium. The formazan crystals were solubilized from the cell monolayers with 100% DMSO. Plates were briefly mixed on an orbital shaker and absorbance was measured at 492 nm using a Perkin-Elmer EnVision multi-label plate reader. All absorbance values were converted to a percentage of the signal obtained from the vehicle treated controls. Absorbance values at 492 nm are directly proportional to the number of viable cells present in the sample. A CC50 value (cytotoxic concentration that results in loss of 50% cell viability) was calculated from the dose-response curve by 4-parameter, non-linear regression analysis using the GraphPad Prism software. The positive control compound, staurosporine, reduced the viability of HepG2 cells in a dose-dependent manner (CC50=100 nM).

The test system of data set [2] is HBV replication in HepAD38 cells. In words: In vitro antiviral assay: extracellular HBV DNA by QPCR in HepAD38 cells. It counts as cell-based, HBV (genotype D, serotype ayw). The conditions noted are these: Hepatitis B virus, 168 h. How it is done:
The anti-HBV activity of the Capsid Assembly Modulators (CAMs) was evaluated in a cell based assay utilizing the human hepatoma cell line HepAD38 (Ladner, S K., et al., 1998). HepAD38 cells were derived from the parental line, HepG2, that were stably transfected with a construct containing an HBV genome (genotype D, serotype ayw) under the control of a tetracycline repressible CMV promoter. Upon removal of tetracycline, viral pre-genomic RNA (pgRNA) and mRNAs are expressed and infectious viral particles are assembled and secreted into the culture medium providing a reliable, robust system to measure multiple steps of the HBV life cycle. Disruption of capsid formation results in reduced levels of DNA-containing virus particles that are released into the culture supernatant. To quantify the effect of CAMs on HBV replication, we developed a sensitive QPCR-based assay that measures extracellular HBV DNA levels upon treatment of HepAD38 cells with various concentrations of test compounds.
HepAD38 cells were maintained in DMEM/F12 medium containing 10% FBS, 400 μg/mL G418 and 0.3 μg/mL tetracycline (tet+media) to maintain repression of HBV replication. To evaluate each compound, HepAD38 cells were seeded into 24-well collagen coated culture plates (Corning BioCoat) at a density of 200,000 cells per well in 1 mL of medium without tetracycline (tet-media) and allowed to adhere overnight at 37° C., 5% CO2 in a humidified incubator. The following day, media was refreshed and a dose range of each compound was prepared by performing 1 log10 serial dilutions in 100% DMSO at 200×the desired assay concentration. Dilutions were then added to the cells resulting in a final dose range of 1 μM to 10 pM and the plates were returned to the incubator. Following 7 days of incubation, culture supernatants were harvested and HBV DNA levels were evaluated by QPCR and compared to the vehicle treated control wells (i.e. DMSO alone).
To quantify HBV DNA levels, cell culture supernatants were diluted 1:10 in sterile, nuclease-free water (Gibco). The diluted supernatants were subsequently added to a PCR master mix containing 1×Roche Light Cycler Master Mix, 0.5 μM forward primer, 0.5 μM reverse primer, 0.2 μM Roche Universal Probe Library Probe 25. The volume was brought to 20 μL with nuclease-free water and amplification of the HBV target sequence was performed using a Roche LightCycler 480 QPCR instrument. PCR extended out to 45 cycles with each cycle consisting of a denaturation step at 95° C. for 10 sec., followed by an annealing step at 60° C. for 10 sec. and a brief extension step at 72° C. for 1 sec.
Extracellular HBV DNA levels, expressed in copies/mL, were determined by comparison to a standard curve (10^2-10^9 copies/mL) using the Roche LightCycler analysis software. These values were subsequently converted to percent inhibition of HBV replication by dividing the HBV DNA levels in the experimental samples with those obtained from the vehicle control (˜1-2×10^5 copies/mL). Potency, expressed as an EC50(the effective concentration required to inhibit 50% of HBV replication), was calculated from the dose-response curve using a 4-parameter non-linear regression analysis (GraphPad Prism). The nucleoside analog inhibitor entecavir was used as a positive control to validate each assay run. The EC50 value of entecavir in the HepAD38 assay was 0.5 nM, as previously reported in the literature.

Where [3] appears, read: 7 days incubation, read-out: Anti-HBV EC50.

As for `Cc1c(C(=O)Nc2ccc(F)c(F)c2)c2c(n1C)C(=O)NC(C)(C)CC2` [Example 2, N-(3,4-difluorophenyl)-1,2,6,6-tetramethyl-8-oxo-1,4,5,6,7,8-hexahydropyrrolo[2,3-c]azepine-3-carboxamide], in data set [1], the half-maximal cytotoxic concentration (CC50) at 7 days is 5000 to 30000 nM. Further, in data set [2] (setting [3]), the EC50 fell in the range of 50 to 499 nM.

For the molecule `CCn1c(C)c2c(c1C(=O)Nc1ccc(F)c(C)c1)CCC(C)(C)NC2=O` [Example 3, 2-ethyl-N-(4-fluoro-3-methylphenyl)-3,6,6-trimethyl-4-oxo-2,4,5,6,7,8-hexahydropyrrolo[3,4-c]azepine-1-carboxamide], the CC50 at 7 days in data set [1] was > 30000 nM. Also, the EC50 in data set [2] (setting [3]) is < 50 nM.

As to `Cc1cc(NC(=O)c2c3c(c(C)n2C)C(=O)NC(C)(C)CC3)ccc1F` [Example 4, N-(4-fluoro-3-methylphenyl)-2,3,6,6-tetramethyl-4-oxo-2,4,5,6,7,8-hexahydropyrrolo[3,4-c]azepine-1-carboxamide], the cytotoxic concentration (CC50) at 7 days in data set [1] is > 30000 nM. Moreover, the 50% effective concentration (EC50) in data set [2] (setting [3]) was < 50 nM.

With `Cc1c2c(c(C(=O)Nc3cc(F)c(F)c(F)c3)n1C)CCC(C)(C)NC2=O` [Example 5, 2,3,6,6-tetramethyl-4-oxo-N-(3,4,5-trifluorophenyl)-2,4,5,6,7,8-hexahydropyrrolo[3,4-c]azepine-1-carboxamide], the half-maximal cytotoxic concentration (CC50) at 7 days in data set [1] was > 30000 nM. Also, in data set [2] (setting [3]), the EC50 is > 1000 nM.

Consider `Cc1cc(NC(=O)c2c3c(c(C)n2C)C(=O)NC(C)(C)CC3)cnc1F` [Example 6, N-(6-fluoro-5-methylpyridin-3-yl)-2,3,6,6-tetramethyl-4-oxo-2,4,5,6,7,8-hexahydropyrrolo[3,4-c]azepine-1-carboxamide], for which, in data set [1], the CC50 at 7 days was > 30000 nM. Also, the 50% effective concentration (EC50) in data set [2] (setting [3]) was > 1000 nM.

Take `Cc1c2c(c(C(=O)Nc3ccnc(F)c3)n1C)CCC(C)(C)NC2=O` [Example 7, N-(2-fluoropyridin-4-yl)-2,3,6,6-tetramethyl-4-oxo-2,4,5,6,7,8-hexahydropyrrolo[3,4-c]azepine-1-carboxamide]: the half-maximal cytotoxic concentration (CC50) at 7 days in data set [1] is > 30000 nM. Also, the EC50 in data set [2] (setting [3]) is 50 to 499 nM.

Take `Cc1c2c(c(C(=O)Nc3cccc(Cl)c3)n1C)CCC(C)(C)NC2=O` [Example 8, N-(3-chlorophenyl)-2,3,6,6-tetramethyl-4-oxo-2,4,5,6,7,8-hexahydropyrrolo[3,4-c]azepine-1-carboxamide]: the half-maximal cytotoxic concentration (CC50) at 7 days in data set [1] is > 30000 nM. Moreover, in data set [2] (setting [3]), the EC50 fell in the range of 50 to 499 nM.

On to `Cc1c2c(c(C(=O)Nc3cccc(C(F)F)c3)n1C)CCC(C)(C)NC2=O` [Example 9, N-(3-(difluoromethyl)phenyl)-2,3,6,6-tetramethyl-4-oxo-2,4,5,6,7,8-hexahydropyrrolo[3,4-c]azepine-1-carboxamide], for which, in data set [1], the CC50 at 7 days was > 30000 nM. Besides, the concentration for a half-maximal effect (EC50) in data set [2] (setting [3]) was 50 to 499 nM.

In the case of `Cc1ccc(F)c(NC(=O)c2c3c(c(C)n2C)C(=O)NC(C)(C)CC3)c1` [Example 10, N-(2-fluoro-5-methylphenyl)-2,3,6,6-tetramethyl-4-oxo-2,4,5,6,7,8-hexahydropyrrolo[3,4-c]azepine-1-carboxamide], in data set [1], the CC50 at 7 days was > 30000 nM. Also, in data set [2] (setting [3]), the EC50 is < 50 nM.

Turning to `Cc1cc(F)cc(NC(=O)c2c3c(c(C)n2C)C(=O)NC(C)(C)CC3)c1` [Example 11, N-(3-fluoro-5-methylphenyl)-2,3,6,6-tetramethyl-4-oxo-2,4,5,6,7,8-hexahydropyrrolo[3,4-c]azepine-1-carboxamide], the CC50 at 7 days in data set [1] is > 30000 nM. In addition, the EC50 in data set [2] (setting [3]) was < 50 nM.

`Cc1c2c(c(C(=O)Nc3ccc(F)c(C(F)F)c3)n1C)CCC(C)(C)NC2=O` [Example 12, N-(3-(difluoromethyl)-4-fluorophenyl)-2,3,6,6-tetramethyl-4-oxo-2,4,5,6,7,8-hexahydropyrrolo[3,4-c]azepine-1-carboxamide]: in data set [1], the CC50 at 7 days was > 30000 nM. Further, in data set [2] (setting [3]), the concentration for a half-maximal effect (EC50) is < 50 nM.

Molecule `C=C1c2c(c(C)n(C)c2C(=O)Nc2ccc(F)c(C)c2)C(=O)NC1C` (centres unmarked) [Example 22, N-(4-fluoro-3-methylphenyl)-2,3,6-trimethyl-7-methylene-4-oxo-4,5,6,7-tetrahydro-2H-pyrrolo[3,4-c]pyridine-1-carboxamide] yielded a cytotoxic concentration (CC50) at 7 days in data set [1] of 500 to 4990 nM. For the same molecule, in data set [2] (setting [3]), the EC50 was in the range of 500 to 1000 nM.

As for `Cc1cc(NC(=O)c2c3c(c(C)n2C)C(=O)NC(C)C3C)ccc1F` (centres unmarked) [Example 23, N-(4-fluoro-3-methylphenyl)-2,3,6,7-tetramethyl-4-oxo-4,5,6,7-tetrahydro-2H-pyrrolo[3,4-c]pyridine-1-carboxamide], in data set [1], the half-maximal cytotoxic concentration (CC50) at 7 days is > 30000 nM. In addition, in data set [2] (setting [3]), the EC50 was < 50 nM.

As to `Cc1cc(NC(=O)c2c3c(c(C)n2C)C(=O)NC(C)CC3)ccc1F` (centres unmarked) [Example 24, N-(4-fluoro-3-methylphenyl)-2,3,6-trimethyl-4-oxo-2,4,5,6,7,8-hexahydropyrrolo[3,4-c]azepine-1-carboxamide], the CC50 at 7 days in data set [1] was > 30000 nM. For the same molecule, the EC50 in data set [2] (setting [3]) is < 50 nM.

As to `Cc1cc(NC(=O)c2c3c(n(C)c2C)C(=O)NC(C)CC3)ccc1F` (centres unmarked) [Example 25, N-(4-fluoro-3-methylphenyl)-1,2,6-trimethyl-8-oxo-1,4,5,6,7,8-hexahydropyrrolo[2,3-c]azepine-3-carboxamide], the CC50 at 7 days in data set [1] was > 30000 nM. Also, the EC50 in data set [2] (setting [3]) is < 50 nM.

In data set [1], `Cc1cc(NC(=O)c2c3c(C)c(C)[nH]c(=O)c3c(C)n2C)ccc1F` [Example 45, N-(4-fluoro-3-methylphenyl)-2,3,6,7-tetramethyl-4-oxo-4,5-dihydro-2H-pyrrolo[3,4-c]pyridine-1-carboxamide] returned a cytotoxic concentration (CC50) at 7 days of 5000 to 30000 nM. In addition, the 50% effective concentration (EC50) in data set [2] (setting [3]) fell in the range of 500 to 1000 nM.

Turning to `Cc1cc(NC(=O)c2c3c(c(C)n2C)C(=O)N[C@@H](C)C3)ccc1F` [Example 46, (S)-N-(4-fluoro-3-methylphenyl)-2,3,6-trimethyl-4-oxo-4,5,6,7-tetrahydro-2H-pyrrolo[3,4-c]pyridine-1-carboxamide], in data set [1], the CC50 at 7 days was > 30000 nM. Further, the EC50 in data set [2] (setting [3]) is < 50 nM.

For `Cc1cccc(NC(=O)c2c3c(c(C)n2C)C(=O)N[C@@H](C)C3)c1F` [Example 47, (S)-N-(2-fluoro-3-methylphenyl)-2,3,6-trimethyl-4-oxo-4,5,6,7-tetrahydro-2H-pyrrolo[3,4-c]pyridine-1-carboxamide], the CC50 at 7 days in data set [1] was > 30000 nM. In addition, the EC50 in data set [2] (setting [3]) was 500 to 1000 nM.

With `C=C1[C@H](CO)[C@@H](O)C[C@@H]1n1cnc2c(=O)[nH]c(N)nc21` [entecavir, reference compound], the EC50 in data set [2] (positive control, 7 days, read-out: EC50 in the HepAD38 assay) was 0.5 nM.

Take `CN[C@@H]1C[C@H]2O[C@@](C)([C@@H]1OC)n1c3ccccc3c3c4c(c5c6ccccc6n2c5c31)C(=O)NC4` [staurosporine, reference compound]: in data set [1] (positive control, HepG2 cells, 7 days, MTT, read-out: CC50 (viability of HepG2 cells)), the cytotoxic concentration (CC50) at 7 days stood at 100 nM.
